Source: US20080107619A1, “Carbohydrate based cellulase inhibitors as feeding stimulants in termites” (University of Florida Research Foundation, Inc., priority 2006, published 2008)
“Also recorded” adds a separate entry of the source.

System: R. flavipes worker termites
Assay: No-choice Petri dish in vivo feeding bioassay (feeding and mortality, 24 days)
Conditions: for Normalized Avg. Totals: relative to control [0] average; for maximum mortality: after 24 days
Protocol: R. flavipes colonies were collected from the University of Florida campus during spring and summer 2006. Colonies were maintained in sealed plastic boxes (30×24×10 cm) at 22±1° C. and 69±1% RH. Colonies were maintained without soil and provisioned with moist brown paper towels and wood shims. Colonies that were acclimated under the above conditions for <2 months are referred to as “field colonies”, while those held for >6 months are referred to as “lab colonies”. Unless otherwise stated, all studies reported here were run with lab colonies.
Two different termite colonies were used. A lab colony was used in bioassays that tested the effects of CBI and FMG; this was the same colony used in cellulase optimization studies, cellulase distribution studies, and for […] determination. The other colony was a field colony, which was used to repeat the FMG assay along side FMCB. The no-choice feeding bioassay was derived from a previously-developed and slightly modified caste differentiation assay reported by M. E. Scharf, et al. in “Caste differentiation responses of two sympatric Reticulitermes termite species to juvenile hormone homologs and synthetic juvenoids in two laboratory assays.” Insectes Soc. […] Acad. Sci. USA, 103 (2006) 4499-504.
Prior to treatment, paper disks 30 were weighed. Treatments and controls were held in complete darkness at approximately 26±1° C. and 69±1% RH. The inhibitor concentrations tested were 75, 50, 25, 10, 5, 1, 0.5, and 0.1 mM (approximately […] wt/wt). For each inhibitor, paper disks were treated with 50 μl of a given concentration. Control disks received 50 μl methanol alone. Treated papers were allowed to dry in a fume hood for 30 min before placing in dishes, wetting with 25 μl water, and adding 15 termites.
Termite feeding on the filter papers was readily observable and quantifiable from the bioassays. Average feeding through the entire bioassay was summed within each replicate and calculated as a percentage of feeding relative to untreated controls, then averaged across replicates.
The experimental design consisted of three replicate dishes per concentration. All assays were carried out for a total of 24 days. Termite mortality and filter paper moisture were monitored every 4th day. Every 8th day, old paper disks were replaced with new ones. These new filter paper disks were treated with identical inhibitor concentrations. The removed filter paper disks 30, showing the results of termite feeding (FIG. 6), were dried and re-weighed. At the end of each assay, data were summarized as cumulative feeding per live termite and cumulative termite mortality. Data were analyzed by non-parametric t-tests (p<0.05) with commercially-available software for use in statistical analysis, designed by SAS Institute, Cary, N.C.
FIGS. 7A-7F provide graphic data on in vivo feeding bioassays conducted with the carbohydrate-based cellulase inhibitors to assess the impact on termite feeding and survivorship. Feeding results are expressed as the cumulative percent of untreated controls through 24 days. Mortality results are expressed as percent mortality after 24 days. […] Error bars represent standard error of the mean.

[1] = 0.1 mM test conc., 1st ROUND (lab colony)
[2] = 0.1 mM test conc., 2nd ROUND (field colony)
[3] = 0.5 mM test conc., 1st ROUND (lab colony)
[4] = 0.5 mM test conc., 2nd ROUND (field colony)
[5] = 1 mM test conc., 1st ROUND (lab colony)
[6] = 1 mM test conc., 2nd ROUND (field colony)
[7] = 5 mM test conc., 1st ROUND (lab colony)
[8] = 5 mM test conc., 2nd ROUND (field colony)
[9] = 10 mM test conc., 1st ROUND (lab colony)
[10] = 10 mM test conc., 2nd ROUND (field colony)
[11] = 25 mM test conc., 1st ROUND (lab colony)
[12] = 25 mM test conc., 2nd ROUND (field colony)
[13] = 50 mM test conc., 1st ROUND (lab colony)
[14] = 50 mM test conc., 2nd ROUND (field colony)
[15] = 75 mM test conc., 1st ROUND (lab colony)
[16] = 75 mM test conc., 2nd ROUND (field colony)

fluoromethyl glucose [FMG]
Average Feeding in mg per Live Termite (std. err.) days 1-8 [1]: 0.52 (0.03) mg per Live Termite | Average Feeding in mg per Live Termite (std. err.) days 9-16 [1]: 0.48 (0.10) mg per Live Termite | Average Feeding in mg per Live Termite (std. err.) days 17-24 [1]: 0.45 (0.04) mg per Live Termite | Normalized Avg. Totals [1]: 0.98 | Average Feeding in mg per Live Termite (std. err.) days 1-8 [2]: 0.20 (0.04) mg per Live Termite | Average Feeding in mg per Live Termite (std. err.) days 9-16 [2]: 0.33 (0.05) mg per Live Termite | Average Feeding in mg per Live Termite (std. err.) days 17-24 [2]: 0.48 (0.07) mg per Live Termite | Normalized Avg. Totals [2]: 0.92 | Average Feeding in mg per Live Termite (std. err.) days 1-8 [3]: 0.57 (0.08) mg per Live Termite | Average Feeding in mg per Live Termite (std. err.) days 9-16 [3]: 0.54 (0.07) mg per Live Termite | Average Feeding in mg per Live Termite (std. err.) days 17-24 [3]: 0.44 (0.07) mg per Live Termite | Normalized Avg. Totals [3]: 0.96 | Average Feeding in mg per Live Termite (std. err.) days 1-8 [4]: 0.34 (0.01) mg per Live Termite | Average Feeding in mg per Live Termite (std. err.) days 9-16 [4]: 0.34 (0.03) mg per Live Termite | Average Feeding in mg per Live Termite (std. err.) days 17-24 [4]: 0.47 (0.03) mg per Live Termite | Normalized Avg. Totals [4]: 1.03 | Average Feeding in mg per Live Termite (std. err.) days 1-8 [5]: 0.55 (0.02) mg per Live Termite | Average Feeding in mg per Live Termite (std. err.) days 9-16 [5]: 0.58 (0.03) mg per Live Termite | Average Feeding in mg per Live Termite (std. err.) days 17-24 [5]: 0.51 (0.03) mg per Live Termite | Normalized Avg. Totals [5]: 0.92 | Average Feeding in mg per Live Termite (std. err.) days 1-8 [6]: 0.36 (0.04) mg per Live Termite | Average Feeding in mg per Live Termite (std. err.) days 9-16 [6]: 0.38 (0.01) mg per Live Termite | Average Feeding in mg per Live Termite (std. err.) days 17-24 [6]: 0.39 (0.06) mg per Live Termite | Normalized Avg. Totals [6]: 1.04 | Average Feeding in mg per Live Termite (std. err.) days 1-8 [7]: 0.39 (0.06) mg per Live Termite | Average Feeding in mg per Live Termite (std. err.) days 9-16 [7]: 0.58 (0.07) mg per Live Termite | Average Feeding in mg per Live Termite (std. err.) days 17-24 [7]: 0.39 (0.07) mg per Live Termite | Normalized Avg. Totals [7]: 0.72 | Average Feeding in mg per Live Termite (std. err.) days 1-8 [8]: 0.29 (0.02) mg per Live Termite | Average Feeding in mg per Live Termite (std. err.) days 9-16 [8]: 0.29 (0.03) mg per Live Termite | Average Feeding in mg per Live Termite (std. err.) days 17-24 [8]: 0.43 (0.05) mg per Live Termite | Normalized Avg. Totals [8]: 0.92 | Average Feeding in mg per Live Termite (std. err.) days 1-8 [9]: 0.32 (0.07) mg per Live Termite | Average Feeding in mg per Live Termite (std. err.) days 9-16 [9]: 0.38 (0.09) mg per Live Termite | Average Feeding in mg per Live Termite (std. err.) days 17-24 [9]: 0.41 (0.05) mg per Live Termite | Normalized Avg. Totals [9]: 0.93 | Average Feeding in mg per Live Termite (std. err.) days 1-8 [10]: 0.17 (0.02) mg per Live Termite | Average Feeding in mg per Live Termite (std. err.) days 9-16 [10]: 0.25 (0.02) mg per Live Termite | Average Feeding in mg per Live Termite (std. err.) days 17-24 [10]: 0.45 (0.04) mg per Live Termite | Normalized Avg. Totals [10]: 0.79 | Average Feeding in mg per Live Termite (std. err.) days 1-8 [11]: 0.27 (0.04) mg per Live Termite | Average Feeding in mg per Live Termite (std. err.) days 9-16 [11]: 0.22 (0.05) mg per Live Termite | Average Feeding in mg per Live Termite (std. err.) days 17-24 [11]: 0.34 (0.02) mg per Live Termite | Normalized Avg. Totals [11]: 0.83 | Average Feeding in mg per Live Termite (std. err.) days 1-8 [12]: 0.25 (0.04) mg per Live Termite | Average Feeding in mg per Live Termite (std. err.) days 9-16 [12]: 0.31 (0.05) mg per Live Termite | Average Feeding in mg per Live Termite (std. err.) days 17-24 [12]: 0.40 (0.02) mg per Live Termite | Normalized Avg. Totals [12]: 0.87 | Average Feeding in mg per Live Termite (std. err.) days 1-8 [13]: 0.30 (0.01) mg per Live Termite | Average Feeding in mg per Live Termite (std. err.) days 9-16 [13]: 0.34 (0.01) mg per Live Termite | Average Feeding in mg per Live Termite (std. err.) days 17-24 [13]: 0.34 (0.02) mg per Live Termite | Normalized Avg. Totals [13]: 0.99 | Average Feeding in mg per Live Termite (std. err.) days 1-8 [14]: 0.25 (0.02) mg per Live Termite | Average Feeding in mg per Live Termite (std. err.) days 9-16 [14]: 0.28 (0.03) mg per Live Termite | Average Feeding in mg per Live Termite (std. err.) days 17-24 [14]: 0.29 (0.01) mg per Live Termite | Normalized Avg. Totals [14]: 0.74 | Average Feeding in mg per Live Termite (std. err.) days 1-8 [15]: 0.17 (0.03) mg per Live Termite | Average Feeding in mg per Live Termite (std. err.) days 9-16 [15]: 0.21 (0.02) mg per Live Termite | Average Feeding in mg per Live Termite (std. err.) days 17-24 [15]: 0.28 (0.02) mg per Live Termite | Normalized Avg. Totals [15]: 0.67 | Average Feeding in mg per Live Termite (std. err.) days 1-8 [16]: 0.21 (0.03) mg per Live Termite | Average Feeding in mg per Live Termite (std. err.) days 9-16 [16]: 0.19 (0.07) mg per Live Termite | Average Feeding in mg per Live Termite (std. err.) days 17-24 [16]: 0.27 (0.05) mg per Live Termite | Normalized Avg. Totals [16]: 0.60 | Effect on feeding (cumulative percent of untreated controls through 24 days) (across tested concentrations 0.1-75 mM, FIGS. 7A-7C, 8A-8B): did not stimulate consumption at any concentration; also recorded: little stimulatory effects at any concentration | mortality, field colony termites (field colony, FIG. 13): approximately 30% | maximum mortality (highest FMG concentration, FIG. 7D (2 colonies averaged)): approximately 20% | maximum mortality (highest concentration tested, FIG. 10A): 10% | mortality, lab colony termites (lab colony, FIG. 13): 2-3%
